From PubChem BioAssay AID328 (DTP/NCI, 2004)
Values joined by “and” are separate entries in the source; they are usually repeats but may differ in a detail not shown here. Identical values can stand only once. Inconclusive results and toxic doses are left out.

Tested on: BDF1 mice, P388 leukemia ip, median survival T/C
Test: NCI In Vivo Anticancer Drug Screen. Data for tumor model P388 Leukemia (intraperitoneal) in B6D2F1 (BDF1) mice
Conditions: endpoint: median survival time, higher = longer survival
Summary of the method: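 Reported as T/C, where T is the survival measurement in dosed animals and C the same measurement in vehicle controls.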

[1] = dose: 100.0 mg/kg/injection, schedule: Q04DX003 (ip), vehicle: saline with Tween-80
[2] = dose: 200.0 mg/kg/injection, schedule: Q04DX003 (ip), vehicle: saline with Tween-80
[3] = dose: 100.0 mg/kg/injection, schedule: Q04DX003 (ip), vehicle: saline

In the case of `CNC(=N)c1ccc(NC(=N)c2ccc(NC(=O)Nc3ccc(C(=N)Nc4ccc(C(=N)NC)cc4)cc3)cc2)cc1`, the T/C (dose: 6.0 mg/kg/injection, schedule: Q01DX009 (ip), vehicle: saline with Tween-80) is reported as 216 % of control, the T/C (dose: 8.0 mg/kg/injection, schedule: Q01DX009 (ip), vehicle: saline with Tween-80) is reported as 172 % of control and 214 % of control and the T/C (dose: 12.0 mg/kg/injection, schedule: Q01DX009 (ip), vehicle: saline with Tween-80) is reported as 241 % of control and 204 % of control and 214 % of control. For the same compound, the T/C (dose: 12.5 mg/kg/injection, schedule: Q04DX003 (ip), vehicle: saline with Tween-80) was 122 % of control.

`O=NN1CCCNC1=O` was tested, and the T/C (dose: 66.0 mg/kg/injection, schedule: Q04DX003 (ip), vehicle: saline with Tween-80) was 245 % of control and the T/C [1] was 116 % of control.

For `CC(C)NC(=O)c1ccccc1Sc1ccccc1C(=O)NC(C)C`, the T/C [1] was 105 % of control, the T/C [2] was 105 % of control and the T/C (dose: 400.0 mg/kg/injection, schedule: Q04DX003 (ip), vehicle: saline with Tween-80) was 99 % of control.

`CCCC(C)C(C)CC` (stereo unspecified) was tested, and the T/C (dose: 6.25 mg/kg/injection, schedule: Q01DX001 (ip), vehicle: saline with Tween-80) was 91 % of control, the T/C (dose: 12.5 mg/kg/injection, schedule: Q01DX001 (ip), vehicle: saline with Tween-80) was 104 % of control and the T/C (dose: 25.0 mg/kg/injection, schedule: Q01DX001 (ip), vehicle: saline with Tween-80) was 116 % of control.

With `Cc1ccc(S(=O)(=O)N(C)c2ccc(I)c(Cl)c2Cl)cc1` the T/C (dose: 100.0 mg/kg/injection, schedule: Q04DX003 (ip), vehicle: Klucel (hydroxypropylcellulose) (HPC)) was 100 % of control, the T/C (dose: 200.0 mg/kg/injection, schedule: Q04DX003 (ip), vehicle: Klucel (hydroxypropylcellulose) (HPC)) was 90 % of control and the T/C (dose: 400.0 mg/kg/injection, schedule: Q04DX003 (ip), vehicle: Klucel (hydroxypropylcellulose) (HPC)) was 90 % of control.

With `CCCCCCCCCCOP(N)(=O)OCCCCCCCCCC` the T/C (dose: 25.0 mg/kg/injection, schedule: Q04DX003 (ip), vehicle: saline) was 115 % of control, the T/C (dose: 50.0 mg/kg/injection, schedule: Q01DX009 (ip), vehicle: saline with Tween-80) was 90 % of control and the T/C (dose: 50.0 mg/kg/injection, schedule: Q04DX003 (ip), vehicle: saline) was 110 % of control. The T/C (dose: 100.0 mg/kg/injection, schedule: Q01DX009 (ip), vehicle: saline with Tween-80) was 86 % of control, the T/C [1] was 95 % of control and the T/C [3] was 110 % of control. The T/C (dose: 150.0 mg/kg/injection, schedule: Q04DX003 (ip), vehicle: saline) was 110 % of control, the T/C [2] was 95 % of control and the T/C (dose: 225.0 mg/kg/injection, schedule: Q04DX003 (ip), vehicle: saline) was 105 % of control.

With `C[N+](C)(C)CCC[N+](C)(C)C` the T/C [3] was 100 % of control, the T/C (dose: 200.0 mg/kg/injection, schedule: Q01DX006 (ip), vehicle: saline) was 114 % of control and the T/C (dose: 200.0 mg/kg/injection, schedule: Q04DX003 (ip), vehicle: saline) was 104 % of control. For the same compound, the T/C (dose: 300.0 mg/kg/injection, schedule: Q01DX006 (ip), vehicle: saline) was 151 % of control, the T/C (dose: 400.0 mg/kg/injection, schedule: Q01DX006 (ip), vehicle: saline) was 94 % of control and the T/C (dose: 400.0 mg/kg/injection, schedule: Q04DX003 (ip), vehicle: saline) was 93 % of control.

`C=CCSc1nc2ccccc2c(=O)n1-c1cc(OC)c(Cl)cc1OC` was tested, and the T/C (dose: 50.0 mg/kg/injection, schedule: Q01DX009 (ip), vehicle: Klucel (hydroxypropylcellulose) (HPC)) was 88 % of control and the T/C (dose: 100.0 mg/kg/injection, schedule: Q01DX009 (ip), vehicle: Klucel (hydroxypropylcellulose) (HPC)) was 96 % of control.

For `CCOC(=S)SCC(=O)Nc1ccc(I)cc1`, the T/C (dose: 15.0 mg/kg/injection, schedule: Q01DX009 (ip), vehicle: saline with Tween-80) was 93 % of control, the T/C (dose: 30.0 mg/kg/injection, schedule: Q01DX009 (ip), vehicle: saline with Tween-80) was 95 % of control and the T/C (dose: 60.0 mg/kg/injection, schedule: Q01DX009 (ip), vehicle: saline with Tween-80) was 98 % of control.

`[NH-]CC([NH-])=O.[NH-]CC([NH-])=O.[Ni]` was tested, and the T/C (dose: 5.0 mg/kg/injection, schedule: Q01DX009 (ip), vehicle: water) was 105 % of control, the T/C (dose: 10.0 mg/kg/injection, schedule: Q01DX009 (ip), vehicle: water) was 105 % of control and the T/C (dose: 12.5 mg/kg/injection, schedule: Q04DX003 (ip), vehicle: water) was 95 % of control. The T/C (dose: 25.0 mg/kg/injection, schedule: Q04DX003 (ip), vehicle: water) was 109 % of control.

With `CCCCCC[C@@H](O)[C@@H]1C2=C(C[C@H]([C@H](O)[C@@H]3CC=CC(=O)O3)CC3=C(C(=O)OC3=O)[C@@H]1O)C(=O)OC2=O` the T/C (dose: 0.12 mg/kg/injection, schedule: Q01DX009 (ip), vehicle: saline) was 107 % of control, the T/C (dose: 0.25 mg/kg/injection, schedule: Q01DX009 (ip), vehicle: saline) was 109 % of control and the T/C (dose: 0.5 mg/kg/injection, schedule: Q01DX009 (ip), vehicle: saline) was 107 % of control. The T/C (dose: 1.0 mg/kg/injection, schedule: Q01DX009 (ip), vehicle: saline) was 119 % of control.

For `C=CC1CN2CCC1CC2C(O)c1ccnc2ccc(OC)cc12` (stereo unspecified), the T/C (dose: 50.0 mg/kg/injection, schedule: Q01DX009 (ip), vehicle: saline) was 120 % of control, the T/C (dose: 100.0 mg/kg/injection, schedule: Q01DX009 (ip), vehicle: saline) was 95 % of control and the T/C (dose: 200.0 mg/kg/injection, schedule: Q01DX009 (ip), vehicle: saline) was 100 % of control.
